Results on 18 compounds are retold here after ChEMBL document CHEMBL3871306, “Design and synthesis of novel N-sulfonyl-2-indoles that behave as 5-HT6 receptor ligands with significant selectivity for D3 over D2 receptors” (Bioorg Med Chem, 2017).

Molecules are shown by their SMILES. Where only a bound is given, the exact number is not on record here.

The target of one test is D(3) dopamine receptor (Homo sapiens, UniProt P35462). The test is described as follows: Displacement of [3H]-methyl-spiperone from human dopamine D3 receptor expressed in CHO cell membranes after 1 hr by liquid scintillation counting.
In test [1] the target is 5-hydroxytryptamine receptor 6 (Homo sapiens, UniProt P50406). In words: Displacement of [3H]-LSD from human 5-HT6R expressed in CHO cell membranes by radioligand binding assay.
Test [2] has as its target T1, D(2) dopamine receptor (Homo sapiens, UniProt P14416). In words: Displacement of [3H]-methyl-spiperone from human dopamine D2L receptor expressed in HEK293 cell membranes after 1 hr by radioligand binding assay.
Test [3] has as its target T1, D(2) dopamine receptor. In words: Displacement of [3H]-methyl-spiperone from human dopamine D2L receptor expressed in HEK293 cell membranes at […] after 1 hr by radioligand binding assay.

Chain of 5-hydroxytryptamine receptor 6 (P50406 whole entry): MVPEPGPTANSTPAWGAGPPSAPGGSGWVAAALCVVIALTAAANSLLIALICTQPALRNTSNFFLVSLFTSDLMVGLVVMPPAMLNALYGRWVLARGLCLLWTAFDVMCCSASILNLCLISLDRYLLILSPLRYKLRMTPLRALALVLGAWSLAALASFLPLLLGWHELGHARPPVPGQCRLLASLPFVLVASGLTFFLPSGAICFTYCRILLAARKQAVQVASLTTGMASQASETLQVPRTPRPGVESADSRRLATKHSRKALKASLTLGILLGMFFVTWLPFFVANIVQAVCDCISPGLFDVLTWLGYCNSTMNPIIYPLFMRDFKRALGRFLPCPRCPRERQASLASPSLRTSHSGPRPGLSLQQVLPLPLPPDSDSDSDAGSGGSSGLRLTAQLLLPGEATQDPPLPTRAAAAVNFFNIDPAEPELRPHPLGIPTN
Chain of D(3) dopamine receptor (P35462 whole entry): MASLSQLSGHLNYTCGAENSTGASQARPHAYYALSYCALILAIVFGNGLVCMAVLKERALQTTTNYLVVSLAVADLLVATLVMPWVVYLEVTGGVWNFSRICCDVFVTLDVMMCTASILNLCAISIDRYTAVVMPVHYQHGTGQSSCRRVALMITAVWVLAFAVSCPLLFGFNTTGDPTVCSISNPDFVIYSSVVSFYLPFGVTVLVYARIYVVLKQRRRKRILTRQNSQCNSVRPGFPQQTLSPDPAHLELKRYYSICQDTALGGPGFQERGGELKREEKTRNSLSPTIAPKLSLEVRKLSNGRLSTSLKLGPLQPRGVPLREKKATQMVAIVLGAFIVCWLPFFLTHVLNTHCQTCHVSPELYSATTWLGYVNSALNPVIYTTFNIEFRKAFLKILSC
T1 sequence (P14416 whole entry): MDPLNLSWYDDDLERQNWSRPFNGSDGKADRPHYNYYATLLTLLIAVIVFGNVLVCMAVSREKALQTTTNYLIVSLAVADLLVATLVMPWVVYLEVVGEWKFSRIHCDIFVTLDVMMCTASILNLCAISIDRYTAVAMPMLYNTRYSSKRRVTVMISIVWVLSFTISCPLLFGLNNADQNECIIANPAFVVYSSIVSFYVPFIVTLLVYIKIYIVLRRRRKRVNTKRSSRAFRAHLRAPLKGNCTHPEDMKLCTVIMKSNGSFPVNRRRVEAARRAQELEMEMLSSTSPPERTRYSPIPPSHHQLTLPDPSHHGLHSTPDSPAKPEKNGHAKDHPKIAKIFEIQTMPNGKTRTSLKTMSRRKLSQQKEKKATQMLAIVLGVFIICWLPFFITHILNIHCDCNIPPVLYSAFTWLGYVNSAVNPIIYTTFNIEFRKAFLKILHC

`CN[C@@H]1c2ccc3c(ccn3S(=O)(=O)c3ccccc3)c2[C@@H]1CCO`: the Ki on D(3) dopamine receptor was more than 10000 nM; in test [1], 25.1 nM; at D(2) dopamine receptor [2] it was more than 10000 nM.

In the case of `CC(=O)Nc1ccc(CCN(C)CC2Cc3ccc4c(ccn4S(=O)(=O)c4ccccc4)c32)cc1` (centres undefined), the Ki at D(3) dopamine receptor is 501 nM; in test [1] it was 79.4 nM; at D(2) dopamine receptor [2], 251 nM.

`CNCC1Cc2ccc3c(ccn3S(=O)(=O)c3ccccc3)c21` (centres undefined): the Ki at D(3) dopamine receptor was 1260 nM; in test [1], 1.58 nM; on D(2) dopamine receptor [2], 2000 nM.

On to `O=S(=O)(c1ccccc1)n1ccc2cc3c(cc21)[C@H]1CCNCC[C@@H]31`, for which the inhibition constant Ki was 3160 nM at D(3) dopamine receptor, 158 nM in test [1] and more than 10000 nM at D(2) dopamine receptor [2].

As for `CNCC1Cc2ccc3c(ccn3S(=O)(=O)c3cccc4ccccc34)c21` (centres undefined), the Ki on D(3) dopamine receptor was 251 nM; in test [1], 1 nM; at D(2) dopamine receptor [2] it was 1000 nM.

With `CNCC1Cc2cc3ccn(S(=O)(=O)c4cccc5ccccc45)c3cc21` (centres undefined), the Ki was 794 nM at D(3) dopamine receptor, 1 nM in test [1] and 2510 nM on D(2) dopamine receptor [2].

Regarding `O=S(=O)(c1ccccc1)n1ccc2c3c(ccc21)[C@H]1CCNCC[C@@H]31` (relative stereo), the Ki at D(3) dopamine receptor is 1000 nM; in test [1] it was 50.1 nM; at D(2) dopamine receptor [2], 794 nM.

Turning to `CN[C@@H]1c2cc3ccn(S(=O)(=O)c4ccccc4)c3cc2[C@H]1CCO` (relative stereo), the Ki on D(3) dopamine receptor is 2000 nM; in test [1], 3.98 nM; on D(2) dopamine receptor [2] it was 15800 nM.

As to `CN[C@H]1c2c(ccc3c2ccn3S(=O)(=O)c2ccccc2)[C@H]1CCO` (relative stereo), the Ki is more than 10000 nM at D(3) dopamine receptor, 7.94 nM in test [1] and more than 10000 nM on D(2) dopamine receptor [2].

With `CN(C)[C@H]1c2cc3ccn(S(=O)(=O)c4ccccc4)c3cc2[C@H]1CCO` (relative stereo), the figures for the Ki (on D(3) dopamine receptor; in test [1]; at D(2) dopamine receptor [2]) were 398 nM, 39.8 nM and more than 10000 nM, respectively.

Turning to `CN(C)[C@H]1c2cc3c(ccn3S(=O)(=O)c3ccccc3)cc2[C@@H]1CCO` (relative stereo), the Ki on D(3) dopamine receptor is 126 nM; in test [1], 316 nM. On D(2) dopamine receptor [3], this compound had an inhibition of 19%.

As to `CN(C)[C@@H]1c2cc3ccn(S(=O)(=O)c4ccccc4)c3cc2[C@H]1CCO` (relative stereo), the results for the Ki (at D(3) dopamine receptor; in test [1]) were 1260 nM and 12.6 nM, respectively. Besides, on D(2) dopamine receptor [3], the inhibition came to 22%.

Take `CN(C)[C@@H]1c2cc3c(ccn3S(=O)(=O)c3ccccc3)cc2[C@@H]1CCO` (relative stereo): the values for the Ki (at D(3) dopamine receptor; in test [1]) were 631 nM and 316 nM, respectively. Also, the inhibition at D(2) dopamine receptor [3] turned out to be 20%.

As to `CN[C@H]1c2cc3ccn(S(=O)(=O)c4ccccc4)c3cc2[C@H]1CCO` (relative stereo), the Ki at D(3) dopamine receptor is 1260 nM; in test [1] it was 10 nM. On D(2) dopamine receptor [3], this compound gave an inhibition of 30%.

On to `CN[C@H]1c2cc3c(ccn3S(=O)(=O)c3ccccc3)cc2[C@@H]1CCO` (relative stereo), for which the inhibition constant (Ki) on D(3) dopamine receptor was 251 nM; in test [1], 158 nM; at D(2) dopamine receptor [2] it was 6310 nM.

Take `CN[C@H]1c2c(ccc3c2ccn3S(=O)(=O)c2ccccc2)[C@@H]1CCO` (relative stereo): the Ki at D(3) dopamine receptor is 1260 nM; in test [1] it was 200 nM; at D(2) dopamine receptor [2] it was 15800 nM.

Turning to `CN[C@@H]1c2cc3c(ccn3S(=O)(=O)c3ccccc3)cc2[C@@H]1CCO` (relative stereo), the figures for the Ki (on D(3) dopamine receptor; in test [1]; on D(2) dopamine receptor [2]) were 1000 nM, 126 nM and more than 10000 nM, respectively.

For `CN[C@H]1c2ccc3c(ccn3S(=O)(=O)c3ccccc3)c2[C@@H]1CCO` (relative stereo), the figures for the inhibition constant Ki (at D(3) dopamine receptor; in test [1]; on D(2) dopamine receptor [2]) were 1260 nM, 158 nM and more than 10000 nM, respectively.
